Data reported in PubChem BioAssay (NCI).
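48-hour exposure; five concentrations; linearly interpolated endpoints. TGI is the concentration that stops growth completely.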

How the values were obtained:
Test in all cases: growth of human tumour cells (NCI), 48 h
[1] = system: DLD-1 colon
[2] = system: HOP-18 NSCLC
[3] = system: M19-MEL melanoma
[4] = system: DMS 114 small cell lung
[5] = system: KM20L2 colon
[6] = system: XF 498 CNS
[7] = system: RXF-631 renal

Compound	TGI [1] [µM]	TGI [2] [µM]	TGI [3] [µM]	TGI [4] [µM]	TGI [5] [µM]	TGI [6] [µM]	TGI [7] [µM]
CC(=O)Nc1ccc(C(=O)N2N=C(C)/C(=C/c3cccc([N+](=O)[O-])c3)C2=O)cc1	> 100	> 100	> 100	> 100			
CN1Cc2c(nc(-c3ccc(Br)cc3)c[n+]2[O-])N(C)C1	> 100	> 100		> 100	> 100	> 100	
CC1=NN(C(=O)c2ccc(Cl)cc2)C(=O)/C1=C/c1ccc(Cl)cc1	> 100		> 100	> 100	> 100	> 100	
Nc1ccc(C(=O)NN2C(=O)C(Cl)C2c2cccc(O)c2)cc1 (configuration not stated)	28.4		38.3	19.9	31.8		
Cc1occ2c1C(=O)CC1C2[C@@H](O)CC2C(C)(C)CCC[C@]12C (some centres not stated)	> 100	> 100	> 100	> 100	> 100	> 100	
COC(=O)C1=C(C)N(NC(=O)c2ccccc2)C2(O)CCCC(=O)C12C (configuration not stated)	> 100			> 100	> 100	> 100	> 100
C/C(=C\Cc1cc(O)ccc1O)CCc1c(C)c(O)c(O)c(C=O)c1C	56.8	59.9	38.8	34	> 100	48.8	
CN(/N=N/c1nc[nH]c1C(N)=O)C1CCCCC1	> 100		> 100	> 100	> 100	> 100	
C#CCSc1nc(N)c2ncn(C3OC(COP(=O)(O)O)C(O)C3O)c2n1 (configuration not stated)	> 239	> 239	> 239		> 239	> 239	
COC1=CC(=O)c2c(O)c3c(c(O)c2C1=O)C[C@](C)(O)C[C@@H]3O	17.2		0.73	3.7	> 100	9.5	11.2
CC(=O)Nc1ccc(C(=O)NN2C(=O)C(Cl)C2c2ccc(O)cc2)cc1 (configuration not stated)	> 100		> 100		> 100	> 100	
CCCCc1c2c(nc3c1CCc1cc4cc5c(nc4nc1-3)-c1nc3c(c(CCCC)c1CC5)CCC/C3=C\c1ccccc1)/C(=C/c1ccccc1)CCC2	> 100			> 100	> 100		
C=CCC1(CC)C(=O)NC(=O)NC1=O			> 100		> 100		
COc1cccc(NC(=O)CC(=O)NNCC(=O)Nc2nnc(-c3ccc(N(CCC#N)S(=O)(=O)c4ccccc4)cc3)s2)c1	> 100	> 100	> 100	> 100	> 100	> 100	> 100
